Consider 4 compounds from PubChem BioAssay AID1259407 (Chemical Carcinogenesis Research Information System (CCRIS), 2018).

Structures are written as SMILES. Active and inactive are the calls of the source. The rule behind the calls is not given here.

For the series, the system named is CCRIS mutagenicity, Ames/micronucleus/aberration tests. Nature of the series: CCRIS mutagenicity studies.
The mark [1] stands for this setting: Test System: AMES SALMONELLA TYPHIMURIUM, Strain/Indicator: TA97, Metabolic Activation: NONE, Method: PREINCUBATION
Where [2] appears, read: Test System: AMES SALMONELLA TYPHIMURIUM, Strain/Indicator: TA98, Metabolic Activation: NONE, Method: PREINCUBATION
[3] abbreviates: Test System: AMES SALMONELLA TYPHIMURIUM, Strain/Indicator: TA100, Metabolic Activation: NONE, Method: PREINCUBATION
[4] abbreviates: Test System: AMES SALMONELLA TYPHIMURIUM, Strain/Indicator: TA1535, Metabolic Activation: NONE, Method: PREINCUBATION
[5] abbreviates: Test System: AMES SALMONELLA TYPHIMURIUM, Strain/Indicator: TA1537, Metabolic Activation: NONE, Method: PREINCUBATION
Setting [6] is: Test System: AMES SALMONELLA TYPHIMURIUM, Strain/Indicator: TA98, Metabolic Activation: HAMSTER, LIVER, S-9, AROCLOR 1254 (10%), Method: PREINCUBATION
Setting [7] is: Test System: AMES SALMONELLA TYPHIMURIUM, Strain/Indicator: TA98, Metabolic Activation: RAT, LIVER, S-9, AROCLOR 1254 (10%), Method: PREINCUBATION
[8] abbreviates: Test System: AMES SALMONELLA TYPHIMURIUM, Strain/Indicator: TA100, Metabolic Activation: HAMSTER, LIVER, S-9, AROCLOR 1254 (10%), Method: PREINCUBATION
Where [9] appears, read: Test System: AMES SALMONELLA TYPHIMURIUM, Strain/Indicator: TA1535, Metabolic Activation: HAMSTER, LIVER, S-9, AROCLOR 1254 (10%), Method: PREINCUBATION
Where [10] appears, read: Test System: AMES SALMONELLA TYPHIMURIUM, Strain/Indicator: TA1537, Metabolic Activation: HAMSTER, LIVER, S-9, AROCLOR 1254 (10%), Method: PREINCUBATION

Take `O=C1C=C(Nc2ccccc2)C(=O)c2ccccc21`: the mutagenic call was “inactive; negative” under setting [1]; “active; positive” (Test System: AMES SALMONELLA TYPHIMURIUM, Strain/Indicator: TA97, Metabolic Activation: RAT, LIVER, S-9, PHENOBARBITAL AND 5,6-BENZOFLAVONE, Method: PREINCUBATION); “inactive; negative” under setting [2]; “active; positive” (Test System: AMES SALMONELLA TYPHIMURIUM, Strain/Indicator: TA98, Metabolic Activation: RAT, LIVER, S-9, PHENOBARBITAL AND 5,6-BENZOFLAVONE, Method: PREINCUBATION); “inactive; negative” under setting [3]; “inactive; negative” (Test System: AMES SALMONELLA TYPHIMURIUM, Strain/Indicator: TA100, Metabolic Activation: RAT, LIVER, S-9, PHENOBARBITAL AND 5,6-BENZOFLAVONE, Method: PREINCUBATION). Besides, the mutagenic call was “inactive; negative” (Test System: AMES SALMONELLA TYPHIMURIUM, Strain/Indicator: TA102, Metabolic Activation: NONE, Method: PREINCUBATION); “inactive; negative” (Test System: AMES SALMONELLA TYPHIMURIUM, Strain/Indicator: TA102, Metabolic Activation: RAT, LIVER, S-9, PHENOBARBITAL AND 5,6-BENZOFLAVONE, Method: PREINCUBATION); “inactive; negative” (Test System: AMES SALMONELLA TYPHIMURIUM, Strain/Indicator: TA104, Metabolic Activation: NONE, Method: PREINCUBATION); “active; positive” (Test System: AMES SALMONELLA TYPHIMURIUM, Strain/Indicator: TA104, Metabolic Activation: RAT, LIVER, S-9, PHENOBARBITAL AND 5,6-BENZOFLAVONE, Method: PREINCUBATION); “inactive; negative” under setting [4]; “inactive; negative” (Test System: AMES SALMONELLA TYPHIMURIUM, Strain/Indicator: TA1535, Metabolic Activation: RAT, LIVER, S-9, PHENOBARBITAL AND 5,6-BENZOFLAVONE, Method: PREINCUBATION). Besides, the mutagenic call is, setting by setting: under setting [5], “inactive; negative”; (Test System: AMES SALMONELLA TYPHIMURIUM, Strain/Indicator: TA1537, Metabolic Activation: RAT, LIVER, S-9, PHENOBARBITAL AND 5,6-BENZOFLAVONE, Method: PREINCUBATION) “active; positive”; (Test System: AMES SALMONELLA TYPHIMURIUM, Strain/Indicator: TA1538, Metabolic Activation: NONE, Method: PREINCUBATION) “inactive; negative”; (Test System: AMES SALMONELLA TYPHIMURIUM, Strain/Indicator: TA1538, Metabolic Activation: RAT, LIVER, S-9, PHENOBARBITAL AND 5,6-BENZOFLAVONE, Method: PREINCUBATION) “active; positive”; (Test System: AMES SALMONELLA TYPHIMURIUM, Strain/Indicator: TA2637, Metabolic Activation: NONE, Method: PREINCUBATION) “active; positive”; (Test System: AMES SALMONELLA TYPHIMURIUM, Strain/Indicator: TA2637, Metabolic Activation: RAT, LIVER, S-9, PHENOBARBITAL AND 5,6-BENZOFLAVONE, Method: PREINCUBATION) “active; positive”.
Turning to `C=C(C)C#N`, the mutagenic call is “inactive; negative” (Test System: AMES SALMONELLA TYPHIMURIUM, Strain/Indicator: TA97, Metabolic Activation: HAMSTER, LIVER, S-9, AROCLOR 1254 (10%), Method: PREINCUBATION); “inactive; negative” (Test System: AMES SALMONELLA TYPHIMURIUM, Strain/Indicator: TA97, Metabolic Activation: HAMSTER, LIVER, S-9, AROCLOR 1254 (30%), Method: PREINCUBATION); “inactive; negative” under setting [1]; “inactive; negative” (Test System: AMES SALMONELLA TYPHIMURIUM, Strain/Indicator: TA97, Metabolic Activation: RAT, LIVER, S-9, AROCLOR 1254 (10 OR 30%), Method: PREINCUBATION); “inactive; negative” under setting [6]; “inactive; negative” (Test System: AMES SALMONELLA TYPHIMURIUM, Strain/Indicator: TA98, Metabolic Activation: HAMSTER, LIVER, S-9, AROCLOR 1254 (30%), Method: PREINCUBATION). Besides, the mutagenic call under setting [2] was “inactive; negative”; the mutagenic call under setting [7] was “inactive; negative”; the mutagenic call under setting [8] is “inactive; negative”; the mutagenic call (Test System: AMES SALMONELLA TYPHIMURIUM, Strain/Indicator: TA100, Metabolic Activation: HAMSTER, LIVER, S-9, AROCLOR 1254 (30%), Method: PREINCUBATION) is “inactive; negative”; the mutagenic call under setting [3] is “inactive; negative”; the mutagenic call (Test System: AMES SALMONELLA TYPHIMURIUM, Strain/Indicator: TA100, Metabolic Activation: RAT, LIVER, S-9, AROCLOR 1254 (10 OR 30%), Method: PREINCUBATION) was “inactive; negative”. Further, the mutagenic call by setting is: under setting [9], “inactive; negative”; (Test System: AMES SALMONELLA TYPHIMURIUM, Strain/Indicator: TA1535, Metabolic Activation: HAMSTER, LIVER, S-9, AROCLOR 1254 (30%), Method: PREINCUBATION) “inactive; negative”; under setting [4], “inactive; negative”; (Test System: AMES SALMONELLA TYPHIMURIUM, Strain/Indicator: TA1535, Metabolic Activation: RAT, LIVER, S-9, AROCLOR 1254 (10 OR 30%), Method: PREINCUBATION) “inactive; negative”; under setting [10], “inactive; negative”; (Test System: AMES SALMONELLA TYPHIMURIUM, Strain/Indicator: TA1537, Metabolic Activation: HAMSTER, LIVER, S-9, AROCLOR 1254 (30%), Method: PREINCUBATION) “inactive; negative”. Besides, the mutagenic call under setting [5] was “inactive; negative”; the mutagenic call (Test System: AMES SALMONELLA TYPHIMURIUM, Strain/Indicator: TA1537, Metabolic Activation: RAT, LIVER, S-9, AROCLOR 1254 (10 OR 30%), Method: PREINCUBATION) is “inactive; negative”; the mutagenic call (Test System: UDS HUMAN HEPATOMA HEPG2 CELLS, Strain/Indicator: THY INCORP, Metabolic Activation: NONE, Method: LIQUID SCINTILLATION COUNTING) was “active; positive”.
For `CC(C)C(N)C(=O)O` (configuration not stated), the mutagenic call (Test System: AMES SALMONELLA TYPHIMURIUM, Strain/Indicator: TA98, Metabolic Activation: RAT LIVER S-9, CHLOROPHENE, Method: STANDARD PLATE (COMPOUND HEATED AT 250 DEGREES CELSIUS FOR 20 MIN)) was “inactive; negative”.
Take `NCCCN`: the mutagenic call was “inactive; negative” under setting [6]; “inactive; negative” under setting [2]; “inactive; negative” under setting [7]; “inactive; negative” under setting [8]; “inactive; negative” under setting [3]; “inactive; negative” (Test System: AMES SALMONELLA TYPHIMURIUM, Strain/Indicator: TA100, Metabolic Activation: RAT, LIVER, S-9, AROCLOR 1254 (10%), Method: PREINCUBATION). The mutagenic call runs as follows: under setting [9], “inactive; negative”; under setting [4], “inactive; negative”; (Test System: AMES SALMONELLA TYPHIMURIUM, Strain/Indicator: TA1535, Metabolic Activation: RAT, LIVER, S-9, AROCLOR 1254 (10%), Method: PREINCUBATION) “inactive; negative”; under setting [10], “inactive; negative”; under setting [5], “inactive; negative”; (Test System: AMES SALMONELLA TYPHIMURIUM, Strain/Indicator: TA1537, Metabolic Activation: RAT, LIVER, S-9, AROCLOR 1254 (10%), Method: PREINCUBATION) “inactive; negative”.
